Activity calls are given as the source filed them. The calls are words filed in the database; no cut-off is given here.
How the values were obtained:
[1] = Metabolic stability in human microsomes assessed as half life; format: ADME, Microsome
[2] = Metabolic stability in rat microsomes assessed as half life; format: ADME, Microsome
Cytochrome P450 3A4 = Cytochrome P450 3A4 (Homo sapiens, UniProt P08684); assay: Inhibition of CYP3A4; format: ADME
Cytochrome P450 2D6 = Cytochrome P450 2D6 (Homo sapiens, UniProt P10635); assay: Inhibition of CYP2D6; format: ADME
Chain of Cytochrome P450 2D6 (P10635 whole entry): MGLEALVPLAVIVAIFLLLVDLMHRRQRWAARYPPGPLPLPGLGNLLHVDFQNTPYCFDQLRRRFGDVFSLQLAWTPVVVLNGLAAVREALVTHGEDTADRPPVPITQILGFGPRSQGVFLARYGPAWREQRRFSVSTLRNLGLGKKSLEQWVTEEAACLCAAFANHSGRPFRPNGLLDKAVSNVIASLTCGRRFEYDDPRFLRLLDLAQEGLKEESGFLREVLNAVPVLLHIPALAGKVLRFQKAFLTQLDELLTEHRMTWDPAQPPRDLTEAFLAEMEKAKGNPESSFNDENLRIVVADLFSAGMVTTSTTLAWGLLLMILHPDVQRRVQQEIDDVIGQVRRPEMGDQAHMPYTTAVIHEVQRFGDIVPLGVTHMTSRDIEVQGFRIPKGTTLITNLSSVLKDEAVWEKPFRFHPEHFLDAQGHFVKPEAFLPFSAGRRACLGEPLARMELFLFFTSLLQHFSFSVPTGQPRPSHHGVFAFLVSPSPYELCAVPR

Cytochrome P450 2C9 = Cytochrome P450 2C9 (Homo sapiens, UniProt P11712); assay: Inhibition of CYP2C9; format: ADME
Chain of Cytochrome P450 2C9 (P11712 whole entry): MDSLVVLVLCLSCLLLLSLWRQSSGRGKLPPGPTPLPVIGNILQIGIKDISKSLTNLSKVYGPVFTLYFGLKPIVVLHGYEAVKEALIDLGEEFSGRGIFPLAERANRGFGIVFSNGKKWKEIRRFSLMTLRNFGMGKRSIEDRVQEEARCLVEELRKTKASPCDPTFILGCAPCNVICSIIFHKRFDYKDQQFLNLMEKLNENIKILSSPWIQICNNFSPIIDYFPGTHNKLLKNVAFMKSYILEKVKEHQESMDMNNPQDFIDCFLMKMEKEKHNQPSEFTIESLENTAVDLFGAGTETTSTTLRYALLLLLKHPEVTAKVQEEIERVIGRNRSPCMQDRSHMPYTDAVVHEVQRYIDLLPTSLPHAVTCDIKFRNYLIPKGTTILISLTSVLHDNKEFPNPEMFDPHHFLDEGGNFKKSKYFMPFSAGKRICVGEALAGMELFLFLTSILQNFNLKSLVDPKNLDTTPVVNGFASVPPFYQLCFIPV

[3] = Oral bioavailability in Sprague-Dawley rat at 10 mg/kg; format: ADME, organism-based; settings: in vivo
[4] = target: T1, 5-hydroxytryptamine receptor 6 (Homo sapiens, UniProt P50406); assay: Antagonist activity at human cloned 5HT6 receptor expressed in human HeLa cells assessed as blockage of 5-HT-stimulated cAMP formation; format: functional, cell-based
T1 sequence (P50406 whole entry): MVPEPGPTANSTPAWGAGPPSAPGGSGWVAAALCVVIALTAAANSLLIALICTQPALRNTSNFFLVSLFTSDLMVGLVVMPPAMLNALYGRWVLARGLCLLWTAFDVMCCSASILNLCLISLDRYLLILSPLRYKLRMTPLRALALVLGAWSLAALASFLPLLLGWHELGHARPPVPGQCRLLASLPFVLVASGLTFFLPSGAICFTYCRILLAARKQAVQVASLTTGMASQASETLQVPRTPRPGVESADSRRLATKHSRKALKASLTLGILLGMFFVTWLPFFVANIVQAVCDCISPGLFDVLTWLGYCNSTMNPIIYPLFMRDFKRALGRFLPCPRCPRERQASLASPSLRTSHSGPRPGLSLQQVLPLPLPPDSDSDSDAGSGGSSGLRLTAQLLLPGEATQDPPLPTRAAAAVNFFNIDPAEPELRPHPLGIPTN

[5] = target: T2, 5-hydroxytryptamine receptor 1A (Homo sapiens, UniProt P08908); assay: Binding affinity to 5HT1a receptor
T2 sequence (P08908 whole entry): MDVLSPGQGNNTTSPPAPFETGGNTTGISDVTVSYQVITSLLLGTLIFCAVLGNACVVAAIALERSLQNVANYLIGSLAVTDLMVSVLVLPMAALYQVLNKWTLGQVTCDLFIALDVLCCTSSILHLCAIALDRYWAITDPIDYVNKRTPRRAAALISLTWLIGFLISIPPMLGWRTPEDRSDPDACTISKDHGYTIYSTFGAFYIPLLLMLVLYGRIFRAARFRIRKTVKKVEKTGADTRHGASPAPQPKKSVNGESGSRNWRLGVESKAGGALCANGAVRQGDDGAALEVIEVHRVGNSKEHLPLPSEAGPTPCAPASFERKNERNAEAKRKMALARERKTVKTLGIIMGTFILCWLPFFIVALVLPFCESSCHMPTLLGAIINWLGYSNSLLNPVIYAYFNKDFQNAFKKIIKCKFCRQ

[6] = target: 5-hydroxytryptamine receptor 1B (Homo sapiens, UniProt P28222); assay: Binding affinity to 5HT1b receptor
Chain of 5-hydroxytryptamine receptor 1B (P28222 whole entry): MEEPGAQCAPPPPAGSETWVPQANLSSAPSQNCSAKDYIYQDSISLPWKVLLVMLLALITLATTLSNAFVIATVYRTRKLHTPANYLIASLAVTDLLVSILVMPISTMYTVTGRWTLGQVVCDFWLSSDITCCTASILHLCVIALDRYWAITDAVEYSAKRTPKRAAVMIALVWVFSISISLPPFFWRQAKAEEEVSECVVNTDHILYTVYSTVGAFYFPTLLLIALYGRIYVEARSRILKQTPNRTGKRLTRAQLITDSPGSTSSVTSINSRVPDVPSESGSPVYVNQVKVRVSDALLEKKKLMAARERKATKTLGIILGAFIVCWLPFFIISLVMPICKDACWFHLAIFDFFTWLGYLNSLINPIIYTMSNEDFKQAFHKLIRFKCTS

[7] = target: 5-hydroxytryptamine receptor 1D (Homo sapiens, UniProt P28221); assay: Binding affinity to 5HT1d receptor
Chain of 5-hydroxytryptamine receptor 1D (P28221 whole entry): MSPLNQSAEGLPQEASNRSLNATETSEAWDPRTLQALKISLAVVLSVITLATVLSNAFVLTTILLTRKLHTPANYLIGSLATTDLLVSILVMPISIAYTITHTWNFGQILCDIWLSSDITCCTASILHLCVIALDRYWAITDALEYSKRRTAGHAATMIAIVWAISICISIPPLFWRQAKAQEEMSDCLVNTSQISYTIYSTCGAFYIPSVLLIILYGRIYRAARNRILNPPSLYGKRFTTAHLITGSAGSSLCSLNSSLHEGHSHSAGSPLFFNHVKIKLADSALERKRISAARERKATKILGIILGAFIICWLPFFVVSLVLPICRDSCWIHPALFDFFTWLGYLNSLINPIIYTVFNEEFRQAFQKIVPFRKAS

[8] = target: 5-hydroxytryptamine receptor 2B (Homo sapiens, UniProt P41595); assay: Binding affinity to 5HT2b receptor
Chain of 5-hydroxytryptamine receptor 2B (P41595 whole entry): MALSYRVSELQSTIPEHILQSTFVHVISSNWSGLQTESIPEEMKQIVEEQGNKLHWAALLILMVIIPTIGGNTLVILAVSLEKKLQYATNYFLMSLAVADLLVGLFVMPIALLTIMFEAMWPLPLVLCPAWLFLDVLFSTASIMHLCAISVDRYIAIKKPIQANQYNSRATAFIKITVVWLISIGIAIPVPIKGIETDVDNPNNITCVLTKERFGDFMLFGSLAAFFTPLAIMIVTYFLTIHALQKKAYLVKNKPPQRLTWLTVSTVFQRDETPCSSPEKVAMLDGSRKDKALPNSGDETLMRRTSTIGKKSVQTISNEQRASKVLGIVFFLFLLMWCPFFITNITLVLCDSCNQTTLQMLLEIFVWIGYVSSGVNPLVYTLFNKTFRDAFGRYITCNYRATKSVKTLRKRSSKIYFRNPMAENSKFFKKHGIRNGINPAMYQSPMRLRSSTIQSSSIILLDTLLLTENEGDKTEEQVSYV

[9] = target: T3, 5-hydroxytryptamine receptor 2C (Homo sapiens, UniProt P28335); assay: Binding affinity to 5HT2c receptor
T3 sequence (P28335 whole entry): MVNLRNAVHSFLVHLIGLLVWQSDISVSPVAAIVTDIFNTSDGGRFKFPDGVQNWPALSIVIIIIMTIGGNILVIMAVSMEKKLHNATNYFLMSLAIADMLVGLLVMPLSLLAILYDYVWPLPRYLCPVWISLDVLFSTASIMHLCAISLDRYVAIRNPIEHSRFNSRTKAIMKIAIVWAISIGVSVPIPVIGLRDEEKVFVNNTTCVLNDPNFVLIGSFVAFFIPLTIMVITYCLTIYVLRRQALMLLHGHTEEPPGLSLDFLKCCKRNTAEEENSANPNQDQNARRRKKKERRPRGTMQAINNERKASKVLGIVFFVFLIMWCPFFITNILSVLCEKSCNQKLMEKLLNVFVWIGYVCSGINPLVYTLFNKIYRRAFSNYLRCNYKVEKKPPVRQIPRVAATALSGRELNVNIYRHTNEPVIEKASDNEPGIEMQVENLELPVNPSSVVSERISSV

[10] = target: 5-hydroxytryptamine receptor 7 (Homo sapiens, UniProt P34969); assay: Binding affinity to 5HT7 receptor
Chain of 5-hydroxytryptamine receptor 7 (P34969 whole entry): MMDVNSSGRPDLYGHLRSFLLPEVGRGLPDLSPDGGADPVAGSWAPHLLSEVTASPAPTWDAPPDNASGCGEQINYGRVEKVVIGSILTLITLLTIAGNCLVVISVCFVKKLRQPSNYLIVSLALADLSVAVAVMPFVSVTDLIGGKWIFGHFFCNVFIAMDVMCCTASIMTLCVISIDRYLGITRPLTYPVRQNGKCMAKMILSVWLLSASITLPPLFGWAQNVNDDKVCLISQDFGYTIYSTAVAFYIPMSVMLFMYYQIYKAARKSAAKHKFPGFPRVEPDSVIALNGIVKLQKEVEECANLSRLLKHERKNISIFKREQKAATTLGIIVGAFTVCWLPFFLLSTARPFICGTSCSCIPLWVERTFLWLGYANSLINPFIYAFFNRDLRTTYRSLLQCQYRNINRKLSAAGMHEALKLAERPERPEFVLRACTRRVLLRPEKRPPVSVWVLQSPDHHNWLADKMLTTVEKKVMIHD

[11] = target: T4, Alpha-2A adrenergic receptor (Homo sapiens, UniProt P08913); assay: Binding affinity to adrenergic alpha2A receptor
T4 sequence (P08913 whole entry): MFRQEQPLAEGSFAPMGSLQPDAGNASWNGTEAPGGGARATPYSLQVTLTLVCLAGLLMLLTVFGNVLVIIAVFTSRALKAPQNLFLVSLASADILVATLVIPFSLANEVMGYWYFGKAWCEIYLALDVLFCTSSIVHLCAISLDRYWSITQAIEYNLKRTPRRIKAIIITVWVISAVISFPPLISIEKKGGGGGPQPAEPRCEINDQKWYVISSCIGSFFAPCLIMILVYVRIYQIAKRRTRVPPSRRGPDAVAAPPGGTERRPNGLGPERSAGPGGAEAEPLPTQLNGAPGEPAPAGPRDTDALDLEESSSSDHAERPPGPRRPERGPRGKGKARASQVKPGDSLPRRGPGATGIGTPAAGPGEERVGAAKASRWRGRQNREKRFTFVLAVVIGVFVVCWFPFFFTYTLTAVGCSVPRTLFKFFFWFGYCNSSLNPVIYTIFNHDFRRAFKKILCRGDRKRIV

D(2) dopamine receptor = D(2) dopamine receptor (Homo sapiens, UniProt P14416); assay: Binding affinity to dopamine D2 receptor
Chain of D(2) dopamine receptor (P14416 whole entry): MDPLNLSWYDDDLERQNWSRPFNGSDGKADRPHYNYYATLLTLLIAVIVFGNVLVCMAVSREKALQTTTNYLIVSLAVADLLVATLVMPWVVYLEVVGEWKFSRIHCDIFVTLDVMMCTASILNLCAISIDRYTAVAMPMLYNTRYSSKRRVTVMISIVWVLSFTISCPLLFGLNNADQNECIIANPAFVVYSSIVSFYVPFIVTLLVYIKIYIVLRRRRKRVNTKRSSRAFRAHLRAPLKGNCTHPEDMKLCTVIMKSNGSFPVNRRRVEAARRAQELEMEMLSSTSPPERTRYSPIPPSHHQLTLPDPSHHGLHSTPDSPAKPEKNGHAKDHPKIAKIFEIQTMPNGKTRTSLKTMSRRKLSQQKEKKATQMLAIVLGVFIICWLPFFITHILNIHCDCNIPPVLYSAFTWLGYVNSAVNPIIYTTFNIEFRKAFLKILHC

[12] = target: T1, 5-hydroxytryptamine receptor 6; assay: Agonist activity at human 5HT6 receptor expressed in CHOK1 cells assessed as increase in 5HT-induced intracellular calcium level at 0.1 to 10 uM by FLIPR assay; format: functional, cell-based; settings: CHO-K1
[13] = target: T1, 5-hydroxytryptamine receptor 6; assay: Displacement of [3H]LSD from human cloned 5HT6 receptor expressed in human HeLa cells; format: cell-based
Rattus norvegicus = assay: Cognitive enhancing effect in Sprague-Dawley rat assessed as reversal of 24 hrs delay-induced retention deficit behavior at 10 mg/kp, po by novel object recognition assay; format: functional, organism-based

Chain of Cytochrome P450 3A4 (P08684 whole entry): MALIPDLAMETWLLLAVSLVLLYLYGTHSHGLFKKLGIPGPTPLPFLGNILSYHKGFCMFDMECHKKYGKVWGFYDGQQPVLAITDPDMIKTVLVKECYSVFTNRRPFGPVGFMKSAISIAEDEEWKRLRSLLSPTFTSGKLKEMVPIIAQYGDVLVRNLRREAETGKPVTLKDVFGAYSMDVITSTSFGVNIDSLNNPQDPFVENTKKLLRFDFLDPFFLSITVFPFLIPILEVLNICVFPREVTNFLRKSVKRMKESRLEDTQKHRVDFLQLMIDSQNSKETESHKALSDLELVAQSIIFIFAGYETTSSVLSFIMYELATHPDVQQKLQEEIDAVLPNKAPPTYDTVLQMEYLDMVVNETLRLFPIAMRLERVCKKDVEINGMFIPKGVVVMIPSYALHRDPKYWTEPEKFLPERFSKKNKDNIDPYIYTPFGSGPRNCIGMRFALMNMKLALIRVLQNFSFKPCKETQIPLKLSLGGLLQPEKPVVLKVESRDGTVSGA

NCCC(=O)Nc1cccc2c1cnn2S(=O)(=O)c1cccc2ccccc12
half-life [1]: > 30 min
half-life [2]: 28 min
IC50 (Cytochrome P450 3A4): 30 µM
IC50 (Cytochrome P450 2D6): 200 µM
IC50 (Cytochrome P450 2C9): 7 µM
bioavailability [3]: 7%
IC50 [4]: 11 nM
Imax [4]: 100%
Ki [5]: 6.4 µM
Ki [6]: > 2000 nM
Ki [7]: > 2000 nM
Ki [8]: 155 nM
Ki [9]: > 2000 nM
Ki [10]: 5.1 µM
Ki [11]: > 2000 nM
Ki (D(2) dopamine receptor): > 2000 nM

NCCC(=O)Nc1ccc2cnn(S(=O)(=O)c3cccc4ccccc34)c2c1
Activity [12]: inactive

O=S(=O)(c1cccc2ccccc12)n1ncc2ccc(NCC3CCNCC3)cc21
Ki [13]: 18 nM

O=C(CCN1CCCCC1)Nc1ccc2cnn(S(=O)(=O)c3cccc4ccccc34)c2c1
IC50 [4]: 170 nM
Imax [4]: 100%

CNCCC(=O)Nc1ccc2cnn(S(=O)(=O)c3cccc4ccccc34)c2c1
IC50 [4]: 26 nM
Imax [4]: 100%

CN(C)CCC(=O)Nc1ccc2cnn(S(=O)(=O)c3cccc4ccccc34)c2c1
IC50 [4]: 53 nM
Imax [4]: 100%

O=C(Nc1ccc2cnn(S(=O)(=O)c3cccc4ccccc34)c2c1)C1CCNCC1
Activity [12]: inactive
half-life [1]: > 30 min
half-life [2]: 11 min
IC50 (Cytochrome P450 3A4): 61 µM
IC50 (Cytochrome P450 2D6): 350 µM
IC50 (Cytochrome P450 2C9): 370 µM
bioavailability [3]: 5%
IC50 [4]: 8 nM
Imax [4]: 100%
Ki [5]: 8.5 µM
Ki [6]: > 2000 nM
Ki [7]: > 2000 nM
Ki [8]: 130 nM
Ki [9]: > 2000 nM
Ki [10]: 6.9 µM
Ki [11]: > 2000 nM
Ki (D(2) dopamine receptor): > 2000 nM

O=C(Nc1ccc2cnn(S(=O)(=O)c3cccc4ccccc34)c2c1)[C@@H]1CCCNC1
Ki [13]: 4 nM
Activity [4]: Active

CCN(CC)CCC(=O)Nc1ccc2cnn(S(=O)(=O)c3cccc4ccccc34)c2c1
IC50 [4]: 260 nM
Imax [4]: 100%

O=C(Nc1ccc2cnn(S(=O)(=O)c3cccc4ccccc34)c2c1)C1CCCNC1 (racemic)
Activity [12]: inactive
half-life [1]: > 30 min
half-life [2]: 8 min
IC50 (Cytochrome P450 3A4): 260 µM
IC50 (Cytochrome P450 2D6): 110 µM
IC50 (Cytochrome P450 2C9): 140 µM
bioavailability [3]: 24%
Activity (Rattus norvegicus): Active
Ki [13]: 1.3 nM
IC50 [4]: 10 nM
Imax [4]: 100%
Ki [5]: 5.6 µM
Ki [6]: 1800 nM
Ki [7]: > 2000 nM
Ki [8]: 174 nM
Ki [9]: > 2000 nM
Ki [10]: 5.8 µM
Ki [11]: > 2000 nM
Ki (D(2) dopamine receptor): > 2000 nM

O=C(Nc1ccc2cnn(S(=O)(=O)c3cccc4ccccc34)c2c1)[C@H]1CCCNC1
Ki [13]: 3.2 nM
Activity [4]: Active
